# Assay results taken from patent US8436210B2, “Amide compound and bacterial disease control agent for agricultural and horticultural use” (The University of Tokyo, priority 2007, dated 2013).
# Key:
# Burkholderia glumae [1] = experiment: Test Example 1: toxoflavin (toxin) production by Burkholderia glumae in LB culture; format: cell-based; settings: for toxin doses (toxoflavin) produced by bacteria as concentration of compound increased: 0, 20, 40, 60, 80 or 100 μM, shake culturing 20 hours, LB medium, FIG. 1
# Description: Burkholderia glumae was inoculated into an LB culture medium (produced by BD, Difco LB Broth: containing tryptone (10.0 g), yeast extract (5.0 g), and sodium chloride (10.0 g)), and cultured at 37° C. overnight. The broth thus obtained was subjected to bacterial collection using a centrifuge, and the collected bacteria were washed with an LB culture medium twice using a fresh LB culture medium each time. A fresh LB culture medium was added to the bacteria, and then Compound (1a-3) produced in Production Example 3 was added thereto in such a manner that its final concentration became a predetermined value (i.e., 0, 20, 40, 60, 80 or 100 μM), followed by shake culturing for 20 hours. The amount of toxoflavin produced by the bacteria in the broth was obtained by the following procedure.
# Each broth was filtered by a 0.22-μm membrane filter, and 1 mL of the filtrate was isolated. One mL of chloroform was added to the filtrate, followed by extraction. The thus-obtained chloroform layer was concentrated under reduced pressure, and an 80% (V/V) aqueous methanol solution was added to and dissolved in the residue. The absorbance (at 260 nm) of the solution was measured, and the toxin doses were calculated from the calibration curve, which was obtained using a chemically synthesized standard toxin.
# The same test was conducted as a comparative test using the compound (comparative compound) shown by the formula below disclosed in Patent Document 1.
# Burkholderia glumae [2] = experiment: Test Example 2: onset of Burkholderia glumae infection on rice sprayed with test liquid; format: in vivo; settings: for percentage of flower clusters with score 0 / percentage of flower clusters with score 1 / percentage of flower clusters with score 2 / percentage of flower clusters with score 3 / percentage of flower clusters with score 4 / percentage of flower clusters with score 5: Korean rice (Milyang 23), 7 days; for percentage of flower clusters with score 1: score 1 = 0.1% to 20% onset; for percentage of flower clusters with score 2: score 2 = 20% to 40% onset; for percentage of flower clusters with score 3: score 3 = 40% to 60% onset; for percentage of flower clusters with score 4: score 4 = 60% to 80% onset; for percentage of flower clusters with score 5: score 5 = 80% to 100% onset
# Description: […] In a separate procedure, Burkholderia glumae were seeded to an LB culture medium and cultured overnight at 37° C., preparing an broth for infection.
# Each test liquid (10 mL) was sprayed onto Korean rice (Milyang 23) raised in a hothouse until the flowering stage. The broth for infection was sprayed onto the rice one hour after the application of the test liquid. After cultivation for seven days, the onset of Burkholderia glumae infection on the rice was evaluated.
# The evaluation was conducted by picking an ear from each plant, making a total of three ears. In each flower cluster (grain), the percentage of the portion that suffered from the onset of infection (i.e., the portion that turned brown) caused by the toxoflavin produced by Burkholderia glumae was visually observed and scored based on the scale shown below. The percentage of the total flower clusters was obtained and scored to indicate the onset of the infection.
# The percentage that suffered from the onset of infection:
# Not less than 0.1% and not greater than 20%: 1
# Not less than 20% and not greater than 40%: 2
# Not less than 40% and not greater than 60%: 3
# Not less than 60% and not greater than 80%: 4
# In this evaluation, three flower clusters (grains) having the same conditions were prepared, and reproducibility was confirmed by repeating the same evaluation three times. The same evaluation was also conducted as a comparative test except that water was used instead of the test liquid. Further, the same evaluation was conducted to serve as a blank except that water was used instead of both the test liquid and the broth for infection.
# Burkholderia glumae [3] = experiment: Test Example 3: onset of Burkholderia glumae infection on rice sprayed with test liquid; format: in vivo; settings: for percentage of flower clusters with score 0: score 0 = less than 0.1% onset; for percentage of flower clusters with score 0 / percentage of flower clusters with score 1 / percentage of flower clusters with score 2 / percentage of flower clusters with score 3 / percentage of flower clusters with score 4 / percentage of flower clusters with score 5: Korean rice (Milyang 23), 7 days, infection broth sprayed 1 h after treatment; for percentage of flower clusters with score 1: score 1 = 0.1% to 20% onset; for percentage of flower clusters with score 2: score 2 = 20% to 40% onset; for percentage of flower clusters with score 3: score 3 = 40% to 60% onset; for percentage of flower clusters with score 4: score 4 = 60% to 80% onset; for percentage of flower clusters with score 5: score 5 = 80% to 100% onset
# Description: Each test liquid (10 mL) was sprayed onto Korean rice ([…] 23) raised in a hothouse until the flowering stage. The broth for infection was sprayed onto the rice one hour after the application of the test liquid. After cultivation for seven days, the onset of Burkholderia glumae infection on the rice was evaluated in the same manner as in Test Example 2. The same evaluation was conducted as the comparative test in the same manner except that water was used instead of the test liquid. Further, the same evaluation was conducted to serve as a blank using water instead of both the test liquid and the broth for infection.
smiles,measurement,setting,value
"CCCCCCCC(=O)NC1=CC(=O)CCC1 [Compound (1a-3), N-(3-oxo-cyclohexen-1-yl)octanamide]",toxin doses (toxoflavin) produced by bacteria as concentration of compound increased,Burkholderia glumae [1],remarkably decreased
same,percentage of flower clusters with score 0,"Burkholderia glumae [2]; 50 μM spray, score 0 = less than 0.1% of portion with onset of infection",73%
same,percentage of flower clusters with score 1,Burkholderia glumae [2]; 50 μM spray,20%
same,percentage of flower clusters with score 2,Burkholderia glumae [2]; 50 μM spray,6%
same,percentage of flower clusters with score 3,Burkholderia glumae [2]; 50 μM spray,1%
same,percentage of flower clusters with score 4,Burkholderia glumae [2]; 50 μM spray,0%
same,percentage of flower clusters with score 5,Burkholderia glumae [2]; 50 μM spray,0%
same,percentage of flower clusters with score 0,"Burkholderia glumae [2]; 100 μM spray, score 0 = less than 0.1% onset",85%
same,percentage of flower clusters with score 1,Burkholderia glumae [2]; 100 μM spray,10%
same,percentage of flower clusters with score 2,Burkholderia glumae [2]; 100 μM spray,3%
same,percentage of flower clusters with score 3,Burkholderia glumae [2]; 100 μM spray,0%
same,percentage of flower clusters with score 4,Burkholderia glumae [2]; 100 μM spray,1%
same,percentage of flower clusters with score 5,Burkholderia glumae [2]; 100 μM spray,1%
same,percentage of flower clusters with score 0,"Burkholderia glumae [2]; 150 μM spray, score 0 = less than 0.1% onset",84%
same,percentage of flower clusters with score 1,Burkholderia glumae [2]; 150 μM spray,9%
same,percentage of flower clusters with score 4,Burkholderia glumae [2]; 150 μM spray,1%
same,percentage of flower clusters with score 5,Burkholderia glumae [2]; 150 μM spray,1%
same,percentage of flower clusters with score 2,Burkholderia glumae [2],4%
same,percentage of flower clusters with score 3,Burkholderia glumae [2],1%
same,onset of Burkholderia glumae on rice,"Burkholderia glumae [2]; test liquid sprayed onto rice, then broth for infection, Table 1 and FIG. 2",prevented
same,percentage of flower clusters with score 0,Burkholderia glumae [3]; 50 μM spray,62%
same,percentage of flower clusters with score 1,Burkholderia glumae [3]; 50 μM spray,15%
same,percentage of flower clusters with score 2,Burkholderia glumae [3]; 50 μM spray,19%
same,percentage of flower clusters with score 3,Burkholderia glumae [3]; 50 μM spray,2%
same,percentage of flower clusters with score 4,Burkholderia glumae [3]; 50 μM spray,1%
same,percentage of flower clusters with score 5,Burkholderia glumae [3]; 50 μM spray,1%
same,percentage of flower clusters with score 0,Burkholderia glumae [3]; 100 μM spray,82%
same,percentage of flower clusters with score 1,Burkholderia glumae [3]; 100 μM spray,9%
same,percentage of flower clusters with score 2,Burkholderia glumae [3]; 100 μM spray,7%
same,percentage of flower clusters with score 3,Burkholderia glumae [3]; 100 μM spray,1%
same,percentage of flower clusters with score 4,Burkholderia glumae [3]; 100 μM spray,1%
same,percentage of flower clusters with score 5,Burkholderia glumae [3]; 100 μM spray,0%
same,percentage of flower clusters with score 0,Burkholderia glumae [3]; 150 μM spray,89%
same,percentage of flower clusters with score 1,Burkholderia glumae [3]; 150 μM spray,8%
same,percentage of flower clusters with score 3,Burkholderia glumae [3]; 150 μM spray,1%
same,percentage of flower clusters with score 2,Burkholderia glumae [3],1%
same,percentage of flower clusters with score 4,Burkholderia glumae [3],1%
same,percentage of flower clusters with score 5,Burkholderia glumae [3],0%
same,onset of Burkholderia glumae on rice,"Burkholderia glumae [3]; test liquid sprayed onto rice, then broth for infection, Table 2 and FIG. 3",prevented
CCCCCCCCCC(=O)CC(=O)Nc1ccccc1O [comparative compound],toxin doses (toxoflavin) produced by bacteria as concentration of compound increased,Burkholderia glumae [1],almost no change
same,control effect on bacterial infections,Burkholderia glumae [1]; statement in background referring to the Test Example,no control effect
